The values below come from US7994119B2, “Compounds for control of appetite” (University Of Cincinnati, priority 2004, dated 2011).

Experiment [1] concerns 129/J male mice. As to the kind of experiment: feeding patterns of fasted mice after intraperitoneal injection (food intake). In kind it is in vivo. The settings on record: mice fasted 24 hours; for control of food intake (PYY analogs): numbers only in FIGS. 3-5. Here is the method: To study the feeding patterns of animals treated with the extended tripeptide BG-116, eight week old 129/J male mice are individually housed under 12-hour light/dark cycles with free access to water and standard chow. After acclimatizing for two weeks, mice are fasted 24 hours before the experiment. Saline (0.1 ml) or peptide (2 mg/mice) in saline (0.1 ml) is injected intraperitoneally, and the food intake during the next 4, 6, and 24 hours is monitored and quantified.
To study the feeding patterns of animals treated with the O-glycosylated tripeptide, eight week old 129/J male mice are individually housed under 12-hour light/dark cycles with free access to water and standard chow. After acclimatizing for two weeks, mice are fasted 24 hours before the experiment. Saline (0.1 ml) or peptide (2 mg/mice) in saline (0.1 ml) is injected intraperitoneally, and the food intake during the next 4 and 6 hours is monitored and quantified.
To study the feeding patterns of animals treated with BT-48 or N-α-Ac[Nle^24,28, Trp^30, Nva^31, ψ^35/36]PYY(22-36)-NH2 wherein ψ is —CH2-NH— (SEQ. ID. NO. 8), eight week old 129/J male mice are individually housed under 12-hour light/dark cycles with free access to water and standard chow. After acclimatizing for two weeks, mice are fasted 24 hours before the experiment. Saline (0.1 ml) or peptide (100 μg/mice) in saline (0.1 ml) is injected intraperitoneally, and the food intake during the next 4 and 6 hours is monitored and quantified.
To study the feeding patterns of animals treated with the BT-56 or N-α-Ac-[Trp^27, ψ^35/36]PYY(25-36)-NH2 wherein ψ is —CH2-NH— (SEQ. ID. NO. 7), eight week old 129/J male mice are individually housed under 12-hour light/dark cycles with free access to water and standard chow. After acclimatizing for two weeks, mice are fasted 24 hours before the experiment. Saline (0.1 ml) or peptide (100 μg/mice) in saline (0.1 ml) is injected intraperitoneally, and the food intake during the next 4 hours is monitored and quantified.
To study the feeding patterns of animals treated with BWX-115 or N-α-Ac-[Trp^30]PYY(25-36)-NH2 wherein ψ is —CH2-NH— (SEQ. ID. NO. 6), eight week old 129/J male mice are individually housed under 12-hour light/dark cycles with free access to water and standard chow. After acclimatizing for two weeks, mice are fasted 24 hours before the experiment. Saline (0.1 ml) or peptide (20 μg/mice) in saline (0.1 ml) is injected intraperitoneally, and the food intake during the next 4 and 24 hours is monitored and quantified.

The target in experiment [2] is T1, Y5 (Homo sapiens, UniProt Q15761).
T1 sequence (Q15761 1-445): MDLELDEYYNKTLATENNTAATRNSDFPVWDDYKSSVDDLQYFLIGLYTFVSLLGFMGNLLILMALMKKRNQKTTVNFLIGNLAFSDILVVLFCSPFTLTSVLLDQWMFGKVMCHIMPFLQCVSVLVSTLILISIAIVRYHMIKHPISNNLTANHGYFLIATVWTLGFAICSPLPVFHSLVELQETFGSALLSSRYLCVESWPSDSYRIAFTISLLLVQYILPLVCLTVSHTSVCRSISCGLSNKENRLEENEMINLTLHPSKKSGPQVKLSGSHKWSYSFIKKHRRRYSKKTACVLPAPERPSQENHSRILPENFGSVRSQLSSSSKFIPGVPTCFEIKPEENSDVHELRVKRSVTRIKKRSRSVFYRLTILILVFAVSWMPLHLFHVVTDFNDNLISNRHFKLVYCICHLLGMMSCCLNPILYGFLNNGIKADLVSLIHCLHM
The settings on record: cited from earlier work.

For experiment [3], the target named is Y4 (Homo sapiens, UniProt P50391). The settings on record: cited from earlier work.
Experiment [4] relates to normal and fasted mice and rats, normal and obese humans. Particulars: peripheral administration; cited from earlier work.

Chain of Y4 (P50391 whole entry): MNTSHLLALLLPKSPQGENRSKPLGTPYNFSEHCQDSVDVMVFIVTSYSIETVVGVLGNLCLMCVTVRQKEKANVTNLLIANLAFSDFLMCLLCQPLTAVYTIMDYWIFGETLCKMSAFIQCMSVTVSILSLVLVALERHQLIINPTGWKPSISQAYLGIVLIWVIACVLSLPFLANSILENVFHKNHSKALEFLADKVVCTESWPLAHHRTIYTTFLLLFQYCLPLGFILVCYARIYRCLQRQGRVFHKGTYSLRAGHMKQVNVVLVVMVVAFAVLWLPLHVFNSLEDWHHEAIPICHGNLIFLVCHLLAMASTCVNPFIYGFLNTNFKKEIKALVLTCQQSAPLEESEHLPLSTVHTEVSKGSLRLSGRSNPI

As for N-α-Ac-Trp-Arg-Tyr-[β-D-Glc]-NH2 [BG-7], the “inhibition of feeding (O-glycosylated tripeptide)” value in experiment [1] (numbers only in FIG. 2) was “can inhibit feeding in subjects”.

With “N-α-Ac-[Trp^27, ψ^35/36]PYY(25-36)-NH2 (Ac-RHWLNLVTRQRY-NH2; also: reduced CH2-NH bond between residues 35/36) [BT-56]”, the “control of food intake (PYY analogs)” value in experiment [1] is “could be used to control food intake in animals and humans”.

For the substance “N-α-Ac-[Trp^30]PYY(25-36)-NH2 (Ac-RHYLNWVTRQRY-NH2) [BWX-115]”, the “control of food intake (PYY analogs)” value in experiment [1] was “could be used to control food intake in animals and humans”.

As to “N-α-Ac[Nle^24,28, Trp^30, Nva^31, ψ^35/36]PYY(22-36)-NH2 (ASXRHYXNWXTRQRY; N-acetyl, C-amide, reduced CH2-NH bond 35/36; Artficial peptide) [BT-48]”, the “control of food intake (PYY analogs)” value in experiment [1] is “could be used to control food intake in animals and humans”.

For PYY(3-36): a NPY Y2-preferring ligand, in experiment [2], the “activation of Y5 receptors” value is given as “potently activate”. Besides, the “activation of Y4 receptors” value in experiment [3] is given as “potently activate”. In addition, the food intake result in experiment [4] is given as “attenuate food intake”.
